Test results taken from the NIST ThermoML archive (doi:10.1016/j.fluid.2009.07.010).

Experiments:
[1] = for mass density: 298.1 K, 101.33 kPa, Liquid, Vibrating tube method; for surface tension liquid-gas: 298.15 K, Drop volume
[2] = xn = mol fraction of the nth substance listed; settings: 298.15 K; for surface tension liquid-gas: Drop volume; for mass density: 101 kPa, Liquid, Vibrating tube method

CCCCn1cc[n+](C)c1.F[B-](F)(F)F [1-butyl-3-methylimidazolium tetrafluoroborate]
[1]
Settings | mass density [kg/m3] | surface tension liquid-gas [mN/m]
– | 1201.2 | 45.33

CCCCn1cc[n+](C)c1.F[B-](F)(F)F [1-butyl-3-methylimidazolium tetrafluoroborate] + CCO
[2]
Settings | mass density [kg/m3] | surface tension liquid-gas [mN/m]
x1 = 0.0986 | 897.2 | 22.83
x1 = 0.2002 | 977.4 | 23.28
x1 = 0.2553 | 1010.7 | 24.65
x1 = 0.2881 | 1027.9 | –
x1 = 0.3284 | 1046.8 | 25.53
x1 = 0.3999 | 1075.5 | 26.55
x1 = 0.4202 | 1082.7 | 27.2
x1 = 0.5024 | 1108.6 | 28.87
x1 = 0.6082 | 1135.9 | 31.32
x1 = 0.7107 | 1157.4 | 34.9
x1 = 0.804 | 1173.7 | 37.99
x1 = 0.9059 | 1188.8 | 41.54
x1 = 1 | 1201.2 | 45.33

CCCCn1cc[n+](C)c1.F[B-](F)(F)F [1-butyl-3-methylimidazolium tetrafluoroborate] + O
[2]
Settings | mass density [kg/m3] | surface tension liquid-gas [mN/m]
x1 = 0.0001 | – | 61.54
x1 = 0.0003 | – | 61.5
x1 = 0.0017 | 1000.9 | –
x1 = 0.0035 | 1004.8 | –
x1 = 0.0039 | – | 57.3
x1 = 0.0052 | 1008.5 | –
x1 = 0.0058 | – | 54.34
x1 = 0.0069 | 1011.9 | –
x1 = 0.0074 | – | 51.77
x1 = 0.0092 | 1014.4 | –
x1 = 0.0094 | – | 50.63
x1 = 0.0197 | 1030.6 | –
x1 = 0.02 | – | 46.93
x1 = 0.0335 | 1048.2 | –
x1 = 0.0404 | – | 46.02
x1 = 0.0498 | – | 46.27
x1 = 0.0502 | 1065.2 | –
x1 = 0.0586 | – | 46.25
x1 = 0.0698 | – | 46.14
x1 = 0.0736 | 1084.1 | –
x1 = 0.0799 | – | 45.99
x1 = 0.0998 | – | 46.19
x1 = 0.1013 | – | 45.63
x1 = 0.1072 | 1103.9 | –
x1 = 0.1081 | – | 46.23
x1 = 0.139 | – | 46.22
x1 = 0.1398 | 1118 | –
x1 = 0.1621 | – | 46.16
x1 = 0.1688 | 1128 | –
x1 = 0.1788 | – | 46.06
x1 = 0.1818 | – | 45.91
x1 = 0.2128 | – | 45.62
x1 = 0.252 | 1148.2 | –
x1 = 0.2963 | 1156.2 | 46.25
x1 = 0.3734 | 1166.9 | –
x1 = 0.4067 | 1169.4 | 46.32
x1 = 0.4408 | 1171.9 | –
x1 = 0.4946 | 1177.9 | –
x1 = 0.5252 | 1178.7 | –
x1 = 0.5304 | 1181.5 | 46.02
x1 = 0.5723 | 1181.8 | –
x1 = 0.6 | 1185 | –
x1 = 0.6326 | 1187.9 | 45.81
x1 = 0.6922 | 1189.4 | –
x1 = 0.7065 | 1191.1 | 45.68
x1 = 0.8003 | – | 45.52
x1 = 0.8167 | 1193.7 | –
x1 = 0.9005 | 1197.8 | 45.41
x1 = 1 | 1201.2 | 45.33

CCn1cc[n+](C)c1.F[B-](F)(F)F [1-ethyl-3-methylimidazolium tetrafluoroborate]
[1]
Settings | mass density [kg/m3] | surface tension liquid-gas [mN/m]
– | 1279.9 | 52.81

CCn1cc[n+](C)c1.F[B-](F)(F)F [1-ethyl-3-methylimidazolium tetrafluoroborate] + CCO
[2]
Settings | mass density [kg/m3] | surface tension liquid-gas [mN/m]
x1 = 0.6087 | 1190.3 | 33.58
x1 = 0.7056 | 1225.5 | 37.37
x1 = 0.8072 | 1241.6 | 42.77
x1 = 0.9054 | 1262.6 | 47.41
x1 = 1 | 1279.9 | 53.04
